In brackets after ≈: the same amount, converted by molar mass.

Common to all, as to experiment: ≥ marks a high value that may be exact or a test limit, other limits are often not marked, values filed in µg/mL are converted to µM
Assay [1] relates to Pseudomonas aeruginosa CMCCB 10104.
In assay [2] the test system is Staphylococcus aureus ATCC 25923.
Assay [3] has as its system Escherichia coli ATCC 25922.
The test system of assay [4] is Candida albicans ATCC 2002.
In assay [5] the test system is Pseudomonas aeruginosa ATCC 27853.
The test system of assay [6] is Bacillus subtilis ATCC 6633.
In assay [7] the test system is Salmonella enterica subsp. enterica serovar Typhimurium ATCC 14028.
For assay [8], the system named is Staphylococcus epidermidis ATCC 12228.
Assay [9] relates to Shigella dysenteriae ATCC 9752.
The test system of assay [10] is Micrococcus luteus ATCC 10240.
The test system of assay [11] is Staphylococcus aureus ATCC 6538P.
Assay [12] deals with Klebsiella pneumoniae ATCC 10031.
The subject of assay [13] is Bacillus subtilis 168.
The subject of assay [14] is Staphylococcus aureus USA 300.
The test system of assay [15] is Escherichia coli K-12.
Assay [16] relates to Pseudomonas aeruginosa PAO1.

Turning to `CC[C@H](C)[C@H](NC(=O)[C@H](Cc1ccccc1)NC(=O)[C@H](CCCCN)NC(=O)[C@H](CC(=O)O)NC(=O)[C@@H](NC(=O)[C@H](CC(C)C)NC(=O)[C@H](CC(=O)O)NC(=O)[C@H](CCC(=O)O)NC(=O)[C@H](C)NC(=O)[C@H](CC(=O)O)NC(=O)[C@H](CCC(=O)O)NC(=O)CNC(=O)[C@H](CC(N)=O)NC(=O)[C@H](CCC(=O)O)NC(=O)[C@@H](NC(=O)[C@H](CC(N)=O)NC(=O)[C@H](C)NC(=O)[C@@H](N)CC(=O)O)C(C)C)[C@@H](C)O)C(=O)NCC(=O)N[C@@H](CC(C)C)C(=O)N[C@@H](CCSC)C(=O)NCC(=O)O` [DANVENGEDAEDLTDKFIGLMG], the MIC (commonly the smallest concentration in the dilution series that meets the test's criterion for growth inhibition) was at least 85 µM in [1], over 85 µM in [2], over 85 µM in [3] and at least 85 µM in assay [4].
As to `C[C@H](NC(=O)[C@H](Cc1c[nH]c2ccccc12)NC(=O)[C@H](CCCCN)NC(=O)[C@H](C)NC(=O)[C@@H](N)Cc1ccccc1)C(=O)N[C@@H](Cc1ccccc1)C(=O)N[C@@H](CCCCN)C(=O)N[C@@H](Cc1c[nH]c2ccccc12)C(=O)N[C@@H](C)C(=O)N[C@@H](CCCCN)C(=O)N[C@@H](CCCCN)C(N)=O` [FAKWAFKWAKK], the MIC in [5] was 142 µM (≈ 200 µg/mL); in [6], 17.7 µM (≈ 25 µg/mL); in [7], 142 µM (≈ 200 µg/mL); in assay [8] it was 70.9 µM (≈ 99.9 µg/mL); in assay [9], at least 35.4 µM; in [3], 70.9 µM (≈ 99.9 µg/mL). For the same molecule, the values for the MIC in [10], in [11] and in assay [12] were 17.7 µM (≈ 25 µg/mL), at least 70.9 µM and at least 142 µM, respectively.
For the molecule `CC[C@H](C)[C@H](NC(=O)CN)C(=O)N[C@@H](Cc1ccccc1)C(=O)N[C@@H](CO)C(=O)N[C@@H](CCCCN)C(=O)N[C@H](C(=O)N[C@@H](CO)C(=O)NCC(=O)N[C@@H](CCCCN)C(=O)N[C@@H](C)C(=O)N[C@H](C(=O)N[C@@H](CCCCN)C(=O)N[C@@H](CC(N)=O)C(=O)N[C@@H](CC(C)C)C(=O)N[C@@H](Cc1ccccc1)C(=O)N[C@H](C(=O)N[C@@H](CCCCN)C(=O)NCC(=O)N[C@@H](C)C(=O)N[C@@H](CCCCN)C(=O)N[C@@H](CC(N)=O)C(=O)N[C@H](C(=O)NCC(=O)N[C@@H](CCCCN)C(=O)N[C@@H](CCCN=C(N)N)C(=O)N[C@H](C(=O)NCC(=O)N[C@@H](CCSC)C(=O)N[C@@H](CC(=O)O)C(=O)N[C@H](C(=O)N[C@H](C(=O)N[C@@H](CCCN=C(N)N)C(=O)N[C@H](C(=O)NCC(=O)N[C@@H](CCSC)C(=O)N[C@@H](CC(=O)O)C(=O)N[C@H](C(=O)N[C@H](C(=O)NCC(=O)N[C@H]1CSSC[C@@H](C(=O)O)NC(=O)[C@H](CCC(=O)O)NC(=O)CNC(=O)[C@H](CCCCN)NC(=O)[C@H]([C@@H](C)CC)NC(=O)[C@H](CCCCN)NC1=O)C(C)C)C(C)C)[C@@H](C)O)C(C)C)C(C)C)C(C)C)C(C)C)[C@@H](C)CC)[C@@H](C)CC)[C@@H](C)CC` [GIFSKISGKAIKNLFIKGAKNVGKRVGMDVVRTGMDVVGCKIKGEC], the MIC in assay [1] is 2.27 µM (≈ 11 µg/mL); in assay [2], 2.27 µM (≈ 11 µg/mL); in assay [3] it was 1.13 µM (≈ 5.5 µg/mL); in [4], 2.27 µM (≈ 11 µg/mL).
As for `CC[C@H](C)[C@H](NC(=O)CN)C(=O)N[C@@H](CC(C)C)C(=O)NCC(=O)N[C@@H](CC(N)=O)C(=O)N[C@H](C(=O)N[C@H](C(=O)NCC(=O)N[C@@H](CCSC)C(=O)NCC(=O)N[C@@H](CCCCN)C(=O)N[C@@H](CCCCN)C(=O)N[C@H](C(=O)N[C@H](C(=O)N[C@H]1CSSC[C@@H](C(=O)O)NC(=O)[C@H](CC(C)C)NC(=O)CNC(=O)[C@H](CO)NC(=O)[C@H](CC(C)C)NC(=O)CNC1=O)C(C)C)[C@@H](C)CC)C(C)C)[C@@H](C)CC` [GILGNIVGMGKKIVCGLSGLC], the MIC amounted to 6.1 µM (≈ 12.4 µg/mL) in assay [1], 3.05 µM (≈ 6.19 µg/mL) in assay [2], 3.05 µM (≈ 6.19 µg/mL) in [3] and 1.53 µM (≈ 3.1 µg/mL) in [4].
As to `CC[C@H](C)[C@H](NC(=O)CNC(=O)[C@H](CO)NC(=O)[C@H](CC(C)C)NC(=O)[C@@H](NC(=O)CN)[C@@H](C)CC)C(=O)N[C@@H](CC(C)C)C(=O)NCC(=O)N[C@H](C(=O)NCC(=O)N[C@@H](CCCCN)C(=O)N[C@@H](CCSC)C(=O)N[C@@H](CC(C)C)C(=O)N[C@H](C(=O)N[C@H]1CSSC[C@@H](C(=O)O)NC(=O)[C@H](CC(C)C)NC(=O)CNC(=O)[C@H](CO)NC(=O)[C@H](CC(C)C)NC(=O)CNC1=O)C(C)C)C(C)C` [GILSGILGVGKMLVCGLSGLC], the MIC in assay [1] came out at 8.64 µM (≈ 17.2 µg/mL); in assay [2], 4.32 µM (≈ 8.59 µg/mL); in [3] it was 4.32 µM (≈ 8.59 µg/mL); in assay [4] it was 4.32 µM (≈ 8.59 µg/mL).
`CC[C@H](C)[C@H](NC(=O)[C@H](CC(C)C)NC(=O)[C@@H](NC(=O)[C@H](Cc1ccccc1)NC(=O)[C@H](CC(C)C)NC(=O)CN)[C@@H](C)O)C(=O)N[C@@H](CCCCN)C(=O)NCC(=O)N[C@@H](C)C(=O)N[C@@H](Cc1ccc(O)cc1)C(=O)N[C@@H](CCCCN)C(=O)N[C@@H](CC(N)=O)C(=O)N[C@@H](CC(=O)O)C(=O)N[C@@H](C)C(=O)N1CCC[C@H]1C(=O)N[C@H](C(=O)N[C@H](C(=O)N[C@@H](C)C(=O)N[C@@H](CS)C(=O)N[C@@H](CC(N)=O)C(=O)O)C(C)C)[C@@H](C)O` [GLFTLIKGAYKNDAPTVACN]: the minimal inhibitory concentration (MIC) was found to be 23.2 µM (≈ 48.6 µg/mL) in [1], 5.82 µM (≈ 12.2 µg/mL) in [2], 11.6 µM (≈ 24.3 µg/mL) in [3] and 11.6 µM (≈ 24.3 µg/mL) in [4].
Consider `CC[C@H](C)[C@H](N)C(=O)N[C@@H](CCCCN)C(=O)N[C@@H](Cc1c[nH]c2ccccc12)C(=O)N[C@@H](CCCCN)C(=O)N[C@@H](CCCCN)C(=O)N[C@@H](CC(C)C)C(=O)N[C@@H](CC(C)C)C(=O)N[C@@H](CCCN=C(N)N)C(=O)N[C@@H](C)C(=O)N[C@@H](C)C(=O)N[C@@H](CCCCN)C(=O)N[C@@H](CCCN=C(N)N)C(=O)N[C@H](C(=O)N[C@@H](CC(C)C)C(N)=O)[C@@H](C)CC` [IKWKKLLRAAKRIL], for which the MIC in assay [13] worked out at 12.5 µM (≈ 21.7 µg/mL); in [14], 6.2 µM (≈ 10.8 µg/mL); in [15] it was 3.1 µM (≈ 5.38 µg/mL); in assay [16], 6.25 µM (≈ 10.9 µg/mL).
On to `CC(C)C[C@H](NC(=O)[C@H](CCCCN)NC(=O)[C@H](CCCCN)NC(=O)[C@H](CC(C)C)NC(=O)[C@H](Cc1c[nH]c2ccccc12)NC(=O)[C@H](CCCCN)NC(=O)[C@H](CC(C)C)NC(=O)[C@@H](N)CC(C)C)C(N)=O` [LLKWLKKL], for which the MIC is 48 µM (≈ 50 µg/mL) in assay [5]; at least 48 µM in assay [6]; over 192 µM in assay [7]; 96 µM (≈ 99.9 µg/mL) in assay [8]; at least 192 µM in assay [9]; 96 µM (≈ 99.9 µg/mL) in assay [3]. Further, the MIC was at least 96 µM in [10], 24 µM (≈ 25 µg/mL) in assay [11] and at least 192 µM in [12].
Regarding `CC[C@H](C)[C@H](NC(=O)[C@@H]1CCCN1C(=O)[C@H](Cc1cnc[nH]1)NC(=O)[C@H](CCCCN)NC(=O)[C@@H]1CCCN1C(=O)[C@@H](N)CCCNC(=N)N)C(=O)N[C@@H](CCCCN)C(=O)N[C@@H](Cc1cnc[nH]1)C(=O)N[C@@H](CCC(N)=O)C(=O)NCC(=O)N[C@@H](CC(C)C)C(=O)N1CCC[C@H]1C(=O)N[C@@H](CCC(N)=O)C(=O)N[C@@H](CCC(=O)O)C(=O)N[C@H](C(=O)N[C@@H](CC(C)C)C(=O)N[C@@H](CC(N)=O)C(=O)N[C@@H](CCC(=O)O)C(=O)N[C@@H](CC(N)=O)C(=O)N[C@@H](CC(C)C)C(=O)N[C@@H](CC(C)C)C(=O)N[C@@H](CCCNC(=N)N)C(=O)N[C@@H](Cc1ccccc1)C(=O)O)C(C)C` [RPKHPIKHQGLPQEVLNENLLRF], the MIC in assay [14] and in assay [15] was at least 100 µM in each case.

For the origin of these results see DBAASP.
